The test system of one experiment is wild type yeast cells. Description: Mitochondrial morphology in yeast (secondary screen, mitochondrial targeted GFP). The experiment is classed as cell-based, S. cerevisiae. To be noted: for % fragmented / % nets / % reticular: Structure Function Analysis of Compound A1, yeast; for % net-like structures: yeast, each at a concentration of 50 μM. The source says: Secondary screens: Compounds identified in the primary growth assay-based screens outlined above are screened secondarily by examining their effects on mitochondrial morphology. We use the steady state structure of mitochondria as an indicator of the relative rates of mitochondrial fission and fusion in cells. […] Mitochondria are visualized using a mitochondrial targeted GFP that is efficiently targeted to both wild type and respiratory deficient mitochondria (Tieu et al., 2000 The Journal of Cell Biology 151, 353-365.).
All compounds identified in the primary growth assay-based screens outlined above were screened secondarily by examining their effects on mitochondrial morphology in yeast. From previous work, we know that the steady state structure of mitochondria is an indicator of the relative rates of mitochondrial fission and fusion in cells (FIG. 7). Specifically, net-like structures indicate a block in fission, and fragmented mitochondrial structures indicate a block in fusion. […] In this secondary assay, small molecules were judged to be a hit if they produced a mutant phenotype in greater than 5% of the cell population.
To determine what structural features are important for the effects of mfisi-1 on mitochondrial fission, we identified structurally related molecules using a chemoinformatics approach. We utilized web-based ChemNavigator to search available public and commercial compound databases for small molecules that uniquely represented key structural features of mfisi-1. We tested a total of 15 small molecules related to mfisi-1 for their effects on mitochondrial morphology in yeast, each at a concentration of 50 μM (Table 3).

Experiment [1] concerns actin cytoskeleton and peripheral ER network. Description: Actin cytoskeleton and peripheral ER network in yeast. The class given is cell-based. To be noted: added after mfisi-1 treatment. From the text: These structures are routinely examined in yeast mitochondrial morphology mutants as a test for the specificity of the mitochondrial phenotype.
A further experiment relates to mammalian COS cells. Description: Mitochondrial fragmentation induced by staurosporine (STS) in COS cells. The class given is cell-based. To be noted: COS cells stimulated with STS; mfisi-1 at 50 μM; n=100. From the text: As indicated above, we observed that mfisi-1 causes changes in mitochondrial morphology in mammalian cells that are consistent with a block in mitochondrial fission. Thus, we examined the effects of mfisi-1 on mitochondrial fragmentation caused by the intrinsic apoptotic stimulus staurosporine (STS) in mammalian COS cells. […] These observations indicate that mfisi-1 retards apoptosis-stimulated Drp1-dependent mitochondrial fission.

Molecules are shown by their SMILES.

Here are results for 29 compounds from US8450333B2, “Molecules for regulating cell death” (The Regents of The University of California, priority 2003, dated 2013).

For the compound `O=c1c2ccccc2nc(S)n1Cc1ccccc1`, in the experiment on wild type yeast cells, the “% fragmented” value is on record as 6%, the “% nets” value was 5% and the “% reticular” value is listed as 89%.

`O=c1c2ccccc2nc2n1CCS2` [2,3-Digydor-thiazolo[2,3-b]quinazolin-4-one]: in the experiment on wild type yeast cells, the “% net-like structures” value was determined as 0%.

As to `C=CCSc1nc2ccccc2c(=O)n1Cc1ccccc1` [2-Allylsulfanyl-3-benzyl-3H-quinazolin-4-one], the “% net-like structures” value in the experiment with wild type yeast cells is listed as 0%.

Turning to `C=CCSc1nc2ccccc2c(=O)n1-c1cccc(C)c1` [2-Allylsulfanyl-3-m-tolyl-3H-quinazolin-4-one], the “% net-like structures” value in the experiment on wild type yeast cells is on record as 1%.

In the case of `C=CCSc1nc2ccccc2c(=O)n1-c1ccccc1OC` [2-Allylsulfanyl-(2-methoxy-phenyl)-3H-quinazolin-4-one], the “% net-like structures” value in the experiment on wild type yeast cells amounted to 0%.

`CCSc1nc2ccccc2c(=O)n1-c1cccc(C)c1` [2-Ethylsulfanyl-3-m-tolyl-3H-quinazolin-4-one]: the “% net-like structures” value in the experiment with wild type yeast cells came out at 2%.

For `COc1ccccc1-n1c(S)nc2ccccc2c1=O` [2-Mercapto-3-(2-methoxy-phenyl)-3H-quinazolin-4-one], in the experiment on wild type yeast cells, the “% net-like structures” value was found to be 0%.

For `Cc1cccc(-n2c(S)nc3ccccc3c2=O)c1` [2-Mercapto-3-m-tolyl-3H-quinazolin-4-one], the “% net-like structures” value in the experiment with wild type yeast cells came out at 0%.

In the case of `Cc1ccccc1-n1c(S)nc2ccccc2c1=O` [2-Mercapto-3-o-tolyl-3H-quinazolin-4-one], the “% net-like structures” value with wild type yeast cells came to 30%.

In the case of `CSc1nc2ccccc2c(=O)n1-c1cccc(C)c1` [2-Methylsulfanyl-3-m-tolyl-3H-quinazolin-4-one], in the experiment with wild type yeast cells, the “% net-like structures” value turned out to be 0%.

In the case of `CSc1nc2ccccc2c(=O)n1Cc1ccccc1` [3-Benzyl-2-methylsulfanyl-3H-quinazolin-4-one], the “% net-like structures” value in the experiment on wild type yeast cells came to 5%.

Turning to `O=C(O)CSc1nc2ccccc2c(=O)n1-c1ccccc1` [(4-oxo-3-phenyl-3,4-dihydro-quinazolin-2-ylsulfanyl)-acetic acid], in the experiment with wild type yeast cells, the “% net-like structures” value came to 5%.

On to `C/C1=C/C(=O)O[C@@H]2C[C@@H](CC[C@H](C)/C=C\C=C\CC1)O[C@@](O)([C@@H]1CSC(=O)N1)C2` [Latrunculin-A], for which, in experiment [1], the “effect on actin cables and patches” value was “complete disruption of actin cables and patches”; the “effect on mitochondrial nets” value was “caused mitochondrial nets to collapse and aggregate”.

For the compound `CN[C@@H]1C[C@H]2O[C@@](C)([C@@H]1OC)n1c3ccccc3c3c4c(c5c6ccccc6n2c5c31)C(=O)NC4` [STS, staurosporine, reference compound], in the experiment with mammalian COS cells, the “% collapsed nets” value is given as 0%, the “% fragmented” value is given as 86%, the “% loose nets” value came to 0% and the “% reticular” value amounted to 14%.

For the compound `Cc1ccccc1-n1c(S)nc2ccccc2c1=O` [drawing 8], in the experiment on wild type yeast cells, the “% fragmented” value came out at 8%, the “% nets” value is on record as 29% and the “% reticular” value is 63%.

For the compound `COc1cc(-n2c(SC)nc3ccccc3c2=O)c(Cl)cc1Cl` [drawing 9], in the experiment on wild type yeast cells, the “% fragmented” value is listed as 11%, the “% nets” value was found to be 7% and the “% reticular” value came to 82%.

With `O=C(O)CSc1nc2ccccc2c(=O)n1-c1ccccc1` [drawing 11], in the experiment on wild type yeast cells, the “% fragmented” value is on record as 8%, the “% nets” value worked out at 5% and the “% reticular” value is given as 87%.

As for `CCSc1nc2ccccc2c(=O)n1-c1cccc(C)c1` [drawing 12], in the experiment on wild type yeast cells, the “% fragmented” value was found to be 51%, the “% nets” value was determined as 1% and the “% reticular” value amounted to 48%.

For the compound `C=CCSc1nc2ccccc2c(=O)n1-c1cccc(C)c1` [drawing 13], in the experiment with wild type yeast cells, the “% fragmented” value stood at 8%, the “% nets” value was 1% and the “% reticular” value was 91%.

Regarding `CSc1nc2ccccc2c(=O)n1-c1cccc(C)c1` [drawing 14], in the experiment with wild type yeast cells, the “% fragmented” value is reported as 6%, the “% nets” value is reported as 0% and the “% reticular” value amounted to 94%.

As to `Cc1cccc(-n2c(S)nc3ccccc3c2=O)c1` [drawing 15], in the experiment on wild type yeast cells, the “% fragmented” value turned out to be 0%, the “% nets” value was found to be 0% and the “% reticular” value is reported as 100%.

As to `COc1ccccc1-n1c(S)nc2ccccc2c1=O` [drawing 16], in the experiment on wild type yeast cells, the “% fragmented” value is 32%, the “% nets” value amounted to 0% and the “% reticular” value worked out at 68%.

In the case of `C=CCSc1nc2ccccc2c(=O)n1Cc1ccccc1` [drawing 17], in the experiment on wild type yeast cells, the “% fragmented” value was determined as 69%, the “% nets” value worked out at 0% and the “% reticular” value is recorded as 31%.

`C=CCSc1nc2ccccc2c(=O)n1-c1ccccc1OC` [drawing 18]: in the experiment with wild type yeast cells, the “% fragmented” value is listed as 3.2%, the “% nets” value is 0% and the “% reticular” value was 96.8%.

On to `O=c1c2ccccc2nc2n1CCS2` [drawing 19], for which, in the experiment on wild type yeast cells, the “% fragmented” value is 7.3%, the “% nets” value is reported as 0% and the “% reticular” value came out at 92.7%.

For `COc1cc(-n2c(SC)nc3cc(Cl)ccc3c2=O)c(Cl)cc1Cl` [mfisi-1.1, 7-chloro-3-(2,4-Dichloro-5-methoxy-phenyl)-2-methylsulfanyl-3H-quinazolin-4-one], the “% net-like structures” value in the experiment with wild type yeast cells worked out at 7%.

For `COc1cc(-n2c(SC)nc3ccccc3c2=O)c(Cl)cc1Cl` [mfisi-1.2, 3-(2,4-Dichloro-5-methoxy-phenyl)-2-methylsulfanyl-3H-quinazolin-4-one], the “% net-like structures” value in the experiment on wild type yeast cells was 7%.

On to `CSc1nc2cc(Cl)ccc2c(=O)n1-c1cc(OC(C)C)c(Cl)cc1Cl` [mfisi-1.3, 7-chloro-3-(2,4-Dichloro-5-isopropoxy-phenyl)-2-methylsulfanyl-3H-quinazolin-4-one], for which the “% net-like structures” value in the experiment with wild type yeast cells was 2%.

In the case of `COc1cc(-n2c(SC)nc3ccc(Cl)cc3c2=O)c(Cl)cc1Cl` [mfisi-1.4, 6-chloro-3-(2,4-Dichloro-5-methoxy-phenyl)-2-methylsulfanyl-3H-quinazolin-4-one], the “% net-like structures” value with wild type yeast cells is 2%.
